Results as given in PubChem BioAssay AID463204 (Broad Institute, 2010).
Calls of active or inactive are those of the source.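 The calls were made as follows: active = AC50 no more than ten times the top concentration tested, that is within one log above it; inconclusive = flat curve fit with activity between 30% and 70%, or invalid poor fit; inactive = AC50 beyond ten times the top tested dose.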

system: S. cerevisiae Mot1-301 ts growth rescue, BacTiter-Glo ATP luminescence; experiment: growth rescue of Mot1-301 ts yeast, confirmation, SUMOylation pathway inhibitor project, whole organism, S. cerevisiae, Mot1-301 ts mutant, luminescence, dose retest (AID 463204);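 also: growth at restrictive 38.5 degrees C of Mot1-301 OY566 strain; actives raise luminescence by restoring growth of the ts mutant at high temperature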

SMILES | AC50
CC1C(=O)CC(c2ccccc2)NC1c1ccccc1 (stereo unspecified) | > 42 µM (inactive)
O=C1c2ccccc2S(=O)(=O)N1Cc1cc(=O)n2ccsc2n1 | > 42 µM (inactive)
COc1ccc(C(=O)CSc2nnc(CNC(=O)c3ccccc3)n2C)cc1 | > 42 µM (inactive)
COCC(C)n1c(SCC(=O)NNC(=O)c2ccccc2)nc2ccccc2c1=O (stereo unspecified) | > 42 µM (inactive)
CC(Oc1ccccc1)C(=O)Nc1ccccc1O (stereo unspecified) | > 42 µM (inactive)
CC(=O)c1cccc(CN2CCCC(N3CCN(c4ccccc4F)CC3)C2)c1 (stereo unspecified) | > 42 µM (inactive)
Cc1cc(C)c2c(Cn3ccnc3)cc(=O)oc2c1 | > 42 µM (inactive)
CCOc1ccc2nc(C(C)O)[nH]c2c1 (stereo unspecified) | > 42 µM (inactive)
COc1cccc(CNC(=O)CCCn2nc(C)c3c(C)n(-c4ccccc4)nc3c2=O)c1 | > 42 µM (inactive)
COC(=O)c1ccc(CSc2nnnn2-c2ccccc2)o1 | > 42 µM (inactive)
Cc1ccc(NC(=S)NC(NC(=O)c2ccccc2C)C(Cl)(Cl)Cl)c(C)c1 (stereo unspecified) | > 42 µM (inactive)
CC(C(=O)NCCN1CCOCC1)(c1ccccc1)c1ccccc1 | > 42 µM (inactive)
Cc1n[nH]c(C)c1S(=O)(=O)N(CC(=O)NC1CCCC1)c1ccc(C(C)C)cc1 | > 21 µM (inactive)
COc1ccc(C2CC(c3cccs3)=NN2C(=O)c2ccccc2)cc1OC (stereo unspecified) | > 42 µM (inactive)
CCCn1nc(C(=O)NNC(=O)c2cc(S(=O)(=O)NC)ccc2Br)c2ccccc2c1=O | > 42 µM (inactive)
NC(=O)NC(=O)COC(=O)/C=C/c1cccs1 | > 42 µM (inactive)
COc1cc(/C=C(\C#N)C(=O)Nc2ccc(C(=O)O)cc2)ccc1OC(=O)c1cccc(F)c1 | > 42 µM (inactive)
CCCc1nc2c(nnn2Cc2ccccc2F)c(=O)[nH]1 | > 42 µM (inactive)
CCOC(=O)N1CCN(C(=O)c2ccc(CS(=O)(=O)c3c(Cl)cccc3Cl)o2)CC1 | > 42 µM (inactive)
CCCCOc1ccc(C(=O)Nc2ccc(CN3CCOCC3)cc2)cc1 | > 42 µM (inactive)
Cc1cc(NC(=O)CCC(=O)N(c2cccnc2)C(C(=O)NC2CCCC2)c2ccccc2)no1 (stereo unspecified) | > 42 µM (inactive)
CC(C)(C)c1ccc(C(=O)COC(=O)CN2C(=O)NC3(CCCC3)C2=O)cc1 | > 42 µM (inactive)
O=C1C2CC=C(Cl)CC2C(=O)N1c1ncn[nH]1 (stereo unspecified) | > 42 µM (inactive)
CCOC(=O)C1=C(C)Nc2ncnn2C1/C=C/c1ccccc1 (stereo unspecified) | > 42 µM (inactive)
Cc1[nH]oc(=O)c1N=Nc1c(Cl)cccc1Cl | 6.02 µM
CC1CC(C)(C)N(C(=O)CN2C(=O)CCC2=O)c2ccccc21 (stereo unspecified) | > 42 µM (inactive)

SMILES | AC50
O=C1CCc2cc(S(=O)(=O)N3CCC(C(=O)NC4CCCC4)CC3)ccc2N1 | > 42 µM (inactive)
Cc1ccc(S(=O)(=O)n2cccc2C)cc1 | > 42 µM (inactive)
COc1ccc(-c2[nH]nc3c2C(c2ccncc2)C(C#N)=C(N)O3)cc1 (stereo unspecified) | > 42 µM (inactive)
CC(C)(C)NC(=O)CC1C(=O)NCCN1Cc1c(F)cccc1Cl (stereo unspecified) | > 42 µM (inactive)
O=C(CSc1nnc(CNC(=O)c2ccccc2)o1)NCc1ccco1 | > 42 µM (inactive)
N#CC(CC(=O)c1ccc(F)cc1)c1ccc2c(c1)OCO2 (stereo unspecified) | 40.2 µM
COC(=O)c1c(C)cc(O)c(C=O)c1O | 17.7 µM
CCCCn1c2c(c(=O)n(C)c1=O)C(c1ccc(OC)cc1)N1CCCCCC1=N2 (stereo unspecified) | > 42 µM (inactive)
COc1ccccc1NC(=O)CSc1nc(O)c(Cc2ccccc2)c(=O)[nH]1 | > 42 µM (inactive)
CN(CCOc1ccc(-c2ccn(S(=O)(=O)c3cccc4ccccc34)n2)cc1)c1ccccn1 | > 42 µM (inactive)
C[C@@]12C(=O)Nc3cc(F)ccc3C(=O)N1[C@H]1c3ccccc3OC[C@@H]1[C@@H]2c1ccccc1 | 5.7 µM
COc1ccc(S(=O)(=O)NCC(=O)N(CC(=O)NCC2CCCO2)c2ccccc2C)cc1 (stereo unspecified) | > 42 µM (inactive)
N#Cc1c(-c2ccco2)cc(-c2cccnc2)nc1N | > 42 µM (inactive)
COc1cccc(-n2nnc3c(=O)n(CC(=O)N4CCCc5ccccc54)cnc32)c1 | > 42 µM (inactive)
COCC(C)n1c(-c2ccc3c(c2)NC(=O)CO3)csc1=Nc1ccc(OC(F)F)cc1 (stereo unspecified) | 25.2 µM
C=C(C)Cc1c(C)c(C#N)c2[nH]c3ccccc3n2c1=O | > 42 µM (inactive)
Cc1ccc(-c2nc(CS(=O)(=O)CC(=O)NC3CCCCC3C)c(C)o2)cc1 (stereo unspecified) | > 42 µM (inactive)
COc1ccc(C(=O)NCCSc2ccc(C)cc2)cc1 | > 42 µM (inactive)
Cc1ccc(N(CC(=O)NC2CCCC2)C(=O)CCC(=O)Nc2ccccn2)cc1C | > 42 µM (inactive)
CC(=O)Nc1ccc(S(=O)(=O)Nc2cccc(-c3ccc4nncn4n3)c2)cc1 | > 42 µM (inactive)
O=C(O)c1cc(Oc2ccc(C(F)(F)F)cc2Cl)ccc1[N+](=O)[O-] | > 42 µM (inactive)
Cc1cc(C)n(C(=O)c2ccccc2[N+](=O)[O-])n1 | > 42 µM (inactive)
CC(NC(=O)C1CCCN(S(=O)(=O)N2CCOCC2)C1)c1ccccc1 (stereo unspecified) | > 42 µM (inactive)
Cc1ccc(NC(=O)C(CC(C)C)NC(=O)C2CCC(C)CC2)nc1 (stereo unspecified) | > 42 µM (inactive)
CN(C)S(=O)(=O)c1ccc(C(=O)/C=C/c2cccnc2)cc1 | > 42 µM (inactive)
Cc1ccc(-c2[nH]ncc2CNCCc2cnn(-c3ccccc3)c2)cc1C | > 42 µM (inactive)

SMILES | AC50
Cc1sc2ncnc(Nc3ccccc3)c2c1C | 29.7 µM
O=C(NC1CCc2ccccc21)c1cc(COc2ccc(F)cc2F)on1 (stereo unspecified) | > 42 µM (inactive)
CCC(C)NCCCCOc1cc(C)cc(C(C)C)c1 (stereo unspecified) | > 42 µM (inactive)
CCC1(CC)NC(=O)N(CC(=O)N2N=C(c3ccc(Cl)cc3)CC2c2ccco2)C1=O (stereo unspecified) | > 42 µM (inactive)
COCCNC(=O)C(=O)NCC1OCCN1C(=O)c1ccc(Cl)cc1 (stereo unspecified) | > 42 µM (inactive)
CC1CCN(CCCCOc2ccc(Cl)cc2)CC1 | > 42 µM (inactive)
CC(=O)N1N=C(N)SC12CCCC2 | > 42 µM (inactive)
O=C1CCC(/C=C/c2ccccc2)=NN1Cc1ccc(Cl)c(Cl)c1 | > 42 µM (inactive)
COc1ccccc1CNc1ncnc2nc[nH]c12 | > 42 µM (inactive)
O=C(CCC(F)(F)F)N1CCCC(CO)(CCc2ccccc2)C1 (stereo unspecified) | > 42 µM (inactive)
Cn1c(O)c(C(c2ccccn2)c2c(O)n(C)c(=S)n(C)c2=O)c(=O)n(C)c1=S | > 42 µM (inactive)
Clc1ccc(CNCc2cccs2)cc1Cl | > 42 µM (inactive)
CCN(CC)C(=O)Cn1cc(S(=O)(=O)CC(=O)NCCc2ccc(OC)c(OC)c2)c2ccccc21 | > 42 µM (inactive)
CN(C)C(CNC(=O)CNC(=O)c1ccc(Br)cc1)c1ccccc1 (stereo unspecified) | > 42 µM (inactive)
c1ccc(-c2nc(N3CCOCC3)c3ccccc3n2)nc1 | > 42 µM (inactive)
COc1cc(/C=N/NC(=O)c2cccnc2)ccc1OCC(=O)N1CCOCC1 | > 42 µM (inactive)
CN(c1cccnc1)c1ncnc2[nH]ncc12 | > 42 µM (inactive)
COCCNC(=O)NC(=O)CSc1nc(C)c(C)c(C)n1 | > 42 µM (inactive)
O=C(Nc1ccc2[nH]c(=O)[nH]c2c1)c1c(F)c(F)c(F)c(F)c1F | > 42 µM (inactive)
CC(C)CN(C(=O)COC(=O)c1ccc2c(c1)OCO2)c1c(N)n(Cc2ccccc2)c(=O)[nH]c1=O | > 42 µM (inactive)
Cc1cnc(C(=O)OCC(=O)Nc2ccc(C)c(S(=O)(=O)N(C)C)c2)cn1 | > 42 µM (inactive)
O=C(Nc1ccc(F)cc1)c1ccc(CSc2ccccc2)o1 | > 42 µM (inactive)
COc1ccc(C2CC3(CC(C)(C)NC(=S)N3)Oc3cc(O)cc(C)c32)cc1 (stereo unspecified) | > 42 µM (inactive)
O=C(c1ccccc1)C(CN1CCCC1)c1ccccc1 (stereo unspecified) | 4.34 µM
CC(C)(C)c1ccc(C(=O)NCCC(=O)N2CCN(c3ncccn3)CC2)cc1 | > 42 µM (inactive)
O=C(Nc1ccccc1)N1CCN(CCc2ccccc2)CC1 | > 42 µM (inactive)

SMILES | AC50
CCCNCc1cc(OCC)c(OCC(N)=O)cc1Br | > 42 µM (inactive)
Cc1cc(CNC(=O)C2CCC(=O)N(Cc3ccccc3F)C2)on1 (stereo unspecified) | > 42 µM (inactive)
COc1ccc2cc(C#N)c(Nc3cccc(F)c3)nc2c1 | > 42 µM (inactive)
CC(=O)Nc1ccc(/C(C)=N/NC(=O)c2ccncc2)cc1 | > 42 µM (inactive)
Cc1ccc(C(C[N+](=O)[O-])c2c(C)[nH]n(-c3ccccc3)c2=O)cc1 (stereo unspecified) | 6.06 µM
CN(Cc1cccnc1)Cc1cn[nH]c1-c1ccc(-c2ccccc2)cc1 | > 42 µM (inactive)
COc1ccccc1CNC(=O)C(C)Sc1ccc(C)cc1 (stereo unspecified) | > 42 µM (inactive)
CCCCC(O)(c1ccc(F)cc1)C(CN1CCOCC1)c1ccc(Cl)cc1 (stereo unspecified) | 5.49 µM
Cc1n[nH]c(=O)c2c(NC(=O)COC(=O)Cc3ccc(Cl)cc3Cl)oc(C)c12 | > 21 µM (inactive)
CCn1c(SCC(=O)Nc2ccc(NC(=O)c3ccco3)cc2)nnc1-c1cccs1 | > 42 µM (inactive)
Cc1ccc(/C(N)=N/OC(=O)/C=C/c2ccccc2)cc1 | > 42 µM (inactive)
CC1=C(C(=O)Nc2ccccc2)C(c2ccccc2[N+](=O)[O-])NC(=O)N1 (stereo unspecified) | > 42 µM (inactive)
O=C(CN(CC1CCCO1)C(=O)CNS(=O)(=O)c1ccc(F)cc1)NCc1ccccc1 (stereo unspecified) | > 42 µM (inactive)
O=C(NCC1CCCO1)C1CC(c2ccc(Cl)c(Cl)c2)=NO1 (stereo unspecified) | > 42 µM (inactive)
NC1=NC(=Nc2ccc(S(N)(=O)=O)cc2)c2ccccc21 | > 21 µM (inactive)
CCCNC(=O)COC(=O)CCC(=O)c1cccs1 | > 42 µM (inactive)
Cn1c(=O)[nH]c(=O)c2c1nc(NCCN)n2CCOc1ccccc1 | > 42 µM (inactive)
COc1ccc(NC(=O)CSc2nccc(C)n2)cc1 | > 42 µM (inactive)
CCC(c1nnnn1C1CCCC1)N1CCN(c2cccc(OC)c2)CC1 (stereo unspecified) | > 21 µM (inactive)
Cc1noc(C)c1Cc1ccc(O)cc1 | > 42 µM (inactive)
COc1ccc(CN2C(=O)c3c(c(C)n(C)c3C)C2C(=O)NC2CCC(C)CC2)cc1 (stereo unspecified) | > 21 µM (inactive)
CC1=C(C(=O)N2CCOCC2)C(c2ccc(O)cc2)NC(=S)N1 (stereo unspecified) | > 42 µM (inactive)
O=C1CN(C(=O)COC(=O)COc2ccc3c(c2)CCC3)c2ccccc2N1 | > 42 µM (inactive)
